# Tests used:
# C. difficile [1] = assay: In vitro susceptibility assay (MIC); details: Clostridioides difficile
# C. difficile [2] = assay: Minimum bactericidal concentration (MBC) assay; details: for MBC: Clostridioides difficile
# Caco-2 cells = assay: Cytotoxicity assay (MTS); assay type: cell-based, human; details: concentration up to 16 μg/ml, 24 hrs
# Procedure: A cytotoxicity assay against Caco-2 cells was performed to assess the potential toxic effect of the natural products as described before. Caco-2 cells cultured in DMEM media supplemented with 10% FBS, 1% NEAA, and 1% penicillin/streptomycin were grown at 37°C in presence of 5% CO2. Following trypsinization, cells were seeded to 96-well plates and allowed to grow till cells in each well attained 100% confluence. Hit natural products were added to the cells at a starting concentration of 16 μg/ml whereas control wells received DMSO at the same concentration. The plates were incubated for 24 hrs. after which MTS reagent was added and absorbance was recorded at 490 nm using a SpectraMax i3Multi-Mode Microplate Reader. Caco-2 cell survival post treatment with natural products were plotted as percentage viability of natural product-treated cells in comparison to the DMSO-treated cells using GraphPad prism v. 8.0.
# Fig 4 Cytotoxicity assay of natural products against Caco-2 cell line. The percentage of viable Caco-2 cells was measured as the ratio of average absorbance of each sample relative to the negative control (DMSO). The absorbance values represent the mean of three samples of each natural product compound with error bars representing standard deviation values for the absorbance.
Compound,MIC (C. difficile [1]) [µg/mL],MIC50 (C. difficile [1]) [µg/mL],MIC90 (C. difficile [1]) [µg/mL],"MIC (C. difficile [1]; ATCC43255, […]) [µg/mL]","MIC (C. difficile [1]; BAA1870, […]) [µg/mL]","MBC (C. difficile [2]; ATCC43255, […]) [µg/mL]","MBC (C. difficile [2]; BAA1870, […]) [µg/mL]",MIC (C. difficile [1]; ATCC43255) [µg/mL],MIC (C. difficile [1]; BAA1870) [µg/mL],toxicity to Caco-2 cells (Caco-2 cells),toxicity to Caco-2 cells (Caco-2 cells; […]),bactericidal activity against C. difficile (C. difficile [2]; in words)
CCc1c(Cl)c(O)c(Cl)c(O)c1C(=O)O[C@H]1[C@H](O)[C@H](OC)[C@H](OC/C2=C\C=C\C[C@H](O)/C(C)=C/[C@H](CC)[C@@H](O[C@@H]3OC(C)(C)[C@@H](OC(=O)C(C)C)[C@H](O)[C@@H]3O)/C(C)=C/C(C)=C/C[C@@H]([C@@H](C)O)OC2=O)O[C@@H]1C [Fidaxomicin],0.125,0.06,0.125,0.06,0.06,0.06,0.125,,,,,
CO[C@H]1[C@H](O)C[C@@H](O[C@@H]2C[C@H](Oc3cc4cc5c(c(O)c4c(O)c3C)C(=O)[C@@H](O[C@H]3C[C@H](O[C@H]4C[C@H](O[C@H]6C[C@@](C)(O)[C@@H](OC(=O)C(C)C)[C@H](C)O6)[C@H](O)[C@@H](C)O4)[C@H](O)[C@@H](C)O3)[C@H]([C@H](OC)C(=O)[C@@H](O)[C@@H](C)O)C5)O[C@H](C)[C@H]2OC(C)=O)O[C@@H]1C [NP-003875],0.015,0.03,0.03,,,0.03,0.03,0.03,0.03,did not exhibit toxicity,non-toxic,bactericidal activity
CN[C@H](CC(C)C)C(=O)N[C@H]1C(=O)N[C@@H](CC(N)=O)C(=O)N[C@H]2C(=O)N[C@H]3C(=O)N[C@H](C(=O)N[C@H](C(=O)O)c4cc(O)cc(O)c4-c4cc3ccc4O)[C@H](O)c3ccc(c(Cl)c3)Oc3cc2cc(c3O[C@@H]2O[C@H](CO)[C@@H](O)[C@H](O)[C@H]2O[C@H]2C[C@](C)(N)[C@H](O)[C@H](C)O2)Oc2ccc(cc2Cl)[C@H]1O [Vancomycin],,0.5,1,1,1,1,4,,,,,

# From article PMC9359557, “Discovery of a novel natural product inhibitor of Clostridioides difficile with potent activity in vitro and in vivo” (PLoS ONE, 2022)
